Some test systems named below: A498 renal; A549 NSCLC; CAKI-1 renal; DU-145 prostate; HCT-15 colon; HOP-92 NSCLC; HT29 colon; K-562 leukemia; KM12 colon; MALME-3M melanoma; MOLT-4 leukemia; NCI/ADR-RES ovarian; OVCAR-5 ovarian; OVCAR-8 ovarian; RXF 393 renal; SF-295 CNS; T-47D breast; UACC-62 melanoma; UO-31 renal.
Test in all cases: NCI tumour cell line growth inhibition, 48 h

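Grown in 96-well plates, cells were treated for 48 hours with each compound at five concentrations. Insufficient inhibition: endpoint recorded as highest concentration tested. Definition used: TGI = concentration required for complete inhibition of growth.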 A value given as a limit tells only on which side of the number the result lay.

For seven compounds, TGI results are on record in PubChem BioAssay (NCI).

`N=c1oc2cc(O)ccc2cc1C(=O)Nc1cccc2ccccc12`: the TGI with A498 renal worked out at 18.7 µM; with A549 NSCLC, 23.2 µM; with CAKI-1 renal it was 24.8 µM; in the assay with DU-145 prostate, 20 µM; in the assay on HCT-15 colon, 11.5 µM; in the assay with HOP-92 NSCLC it was 14.5 µM. In addition, the TGI with HT29 colon is 26.9 µM; in the assay with K-562 leukemia, greater than 42.7 µM; in the assay with KM12 colon, greater than 36.2 µM; in the assay on MALME-3M melanoma, 15.5 µM; in the assay on MOLT-4 leukemia it was greater than 35.4 µM; in the assay on NCI/ADR-RES ovarian, 4.43 µM. Moreover, the TGI is 36.3 µM with OVCAR-5 ovarian; 18.3 µM in the assay on OVCAR-8 ovarian; 18.7 µM with RXF 393 renal; 23.2 µM in the assay with SF-295 CNS; 19.6 µM in the assay with T-47D breast; 14.3 µM in the assay with UACC-62 melanoma. Besides, the TGI in the assay on UO-31 renal came to 19.9 µM.

Consider `c1ccc(/C(=N/Nc2ccccn2)c2cccnn2)cc1`, for which the TGI in the assay on A498 renal is greater than 100 µM; with A549 NSCLC, greater than 69.8 µM; in the assay on CAKI-1 renal, greater than 41.6 µM; in the assay on DU-145 prostate, greater than 100 µM; with HCT-15 colon, greater than 100 µM; in the assay on HOP-92 NSCLC, greater than 39.5 µM. Further, the TGI is greater than 58.8 µM in the assay with HT29 colon; greater than 100 µM with K-562 leukemia; greater than 100 µM with KM12 colon; greater than 67.9 µM with MALME-3M melanoma; 27.1 µM with MOLT-4 leukemia; 13.2 µM in the assay with NCI/ADR-RES ovarian. In addition, the TGI in the assay on OVCAR-5 ovarian was greater than 100 µM; in the assay on OVCAR-8 ovarian, 18.9 µM; in the assay on RXF 393 renal, greater than 100 µM; in the assay on SF-295 CNS it was 29.7 µM; in the assay with T-47D breast it was greater than 100 µM; with UACC-62 melanoma, greater than 52.6 µM. In the assay with UO-31 renal, this compound returned a TGI of 6.02 µM.

Take `O=C(CCCn1ccnc1[N+](=O)[O-])NCCn1cnc([N+](=O)[O-])n1`: the TGI with A498 renal, in the assay on A549 NSCLC, with CAKI-1 renal, in the assay with DU-145 prostate, with HCT-15 colon and with HOP-92 NSCLC was greater than 100 µM each time. For the same compound, the TGI in the assay with HT29 colon, in the assay on K-562 leukemia, in the assay with KM12 colon, in the assay with MALME-3M melanoma, with MOLT-4 leukemia and in the assay on NCI/ADR-RES ovarian was greater than 100 µM in each case. For the same compound, the TGI with OVCAR-5 ovarian, in the assay on OVCAR-8 ovarian, with RXF 393 renal, in the assay on SF-295 CNS, in the assay on T-47D breast and with UACC-62 melanoma was greater than 100 µM each time. In the assay with UO-31 renal, this compound displayed a TGI greater than 100 µM.

In the case of `COCCCNc1c2ccccc2nc2ccccc12`, the TGI was 15.2 µM in the assay with A498 renal; 14 µM in the assay with A549 NSCLC; 3.75 µM with CAKI-1 renal; 9.75 µM in the assay on DU-145 prostate; 3.38 µM in the assay with HCT-15 colon; 12.5 µM in the assay with HOP-92 NSCLC. The TGI is 51.8 µM in the assay with HT29 colon; 23.6 µM with K-562 leukemia; 24.6 µM with KM12 colon; 7.17 µM with MALME-3M melanoma; greater than 100 µM in the assay with MOLT-4 leukemia; 33.6 µM with NCI/ADR-RES ovarian. Further, the TGI is 6.93 µM in the assay with OVCAR-5 ovarian; 15.5 µM in the assay on OVCAR-8 ovarian; 14.2 µM in the assay with RXF 393 renal; 14.9 µM in the assay with SF-295 CNS; 6.89 µM with T-47D breast; 6.35 µM with UACC-62 melanoma. Further, the TGI with UO-31 renal was 8.01 µM.

As to `OCC1OC(n2cnc3c(Cl)nc(Nc4ccc(Cl)c(Cl)c4)nc32)CC1O` (stereo not drawn), the TGI was 18.9 µM in the assay on A498 renal; greater than 50 µM in the assay on A549 NSCLC; 33.7 µM with CAKI-1 renal; 48.6 µM in the assay on DU-145 prostate; 21.7 µM in the assay on HCT-15 colon; 16.3 µM with HOP-92 NSCLC. In addition, the TGI in the assay with HT29 colon is 15.2 µM; in the assay with K-562 leukemia, 49.4 µM; with KM12 colon, 17.7 µM; in the assay with MALME-3M melanoma it was 21.2 µM; with MOLT-4 leukemia, 12.5 µM; with NCI/ADR-RES ovarian, 25.3 µM. In addition, the TGI in the assay on OVCAR-5 ovarian was greater than 50 µM; in the assay on OVCAR-8 ovarian, 22.6 µM; with RXF 393 renal, 19.5 µM; in the assay with SF-295 CNS, 19.3 µM; with T-47D breast it was greater than 50 µM; in the assay on UACC-62 melanoma it was 17.2 µM. The same compound returned a TGI in the assay with UO-31 renal of 31.4 µM.

`CCOc1cc2c(cc1O)C(=O)C[C@@H]1[C@@H]2CC[C@]2(C)[C@@H](O)CC[C@@H]12`: the TGI with A498 renal is greater than 29.1 µM; in the assay with A549 NSCLC, greater than 100 µM; in the assay on CAKI-1 renal, greater than 100 µM; with DU-145 prostate it was greater than 51.9 µM; with HCT-15 colon, 29.3 µM; with HOP-92 NSCLC, greater than 100 µM. Also, the TGI in the assay on HT29 colon was 29.9 µM; with K-562 leukemia, 2.27 µM; in the assay with KM12 colon, 29.6 µM; in the assay on MALME-3M melanoma it was greater than 9.3 µM; in the assay with MOLT-4 leukemia, greater than 31.7 µM; in the assay with NCI/ADR-RES ovarian it was 8.27 µM. The TGI in the assay on OVCAR-5 ovarian is greater than 100 µM; in the assay with OVCAR-8 ovarian it was 27.1 µM; in the assay with RXF 393 renal, greater than 100 µM; with SF-295 CNS, 9.52 µM; with T-47D breast, greater than 100 µM; with UACC-62 melanoma it was greater than 100 µM. This compound also had a TGI in the assay on UO-31 renal greater than 100 µM.

Turning to `CCCCCCCCCCCCCCCC(=O)OC1C(O)C(O)C(O)C(O)C12CO2` (stereo not drawn), the TGI in the assay on A498 renal was greater than 100 µM; in the assay on A549 NSCLC, greater than 100 µM; in the assay on CAKI-1 renal it was 29.8 µM; with DU-145 prostate, greater than 100 µM; with HCT-15 colon, 63.5 µM; with HOP-92 NSCLC, 56.1 µM. Besides, the TGI is greater than 100 µM in the assay with HT29 colon; 67.8 µM in the assay with K-562 leukemia; greater than 100 µM in the assay on KM12 colon; greater than 100 µM in the assay with MALME-3M melanoma; 42.7 µM with MOLT-4 leukemia; greater than 100 µM in the assay with NCI/ADR-RES ovarian. Also, the TGI in the assay with OVCAR-5 ovarian is greater than 100 µM; in the assay on OVCAR-8 ovarian, 57.5 µM; in the assay on RXF 393 renal, greater than 100 µM; with SF-295 CNS, greater than 100 µM; in the assay with T-47D breast it was greater than 100 µM; in the assay with UACC-62 melanoma it was greater than 100 µM. Also, the TGI in the assay with UO-31 renal was greater than 100 µM.
